According to publication PMC12477080, “Polychlorinated biphenyls (PCBs) interact with drug metabolism in vivo” (Archives of Toxicology, 2025):

What was measured:
Human CYP1A2 = biological target: T1, Human CYP1A2 (Homo sapiens, UniProt P05177); experiment: In vitro metabolism by CYP1A2 Supersomes; assay type: in vitro ADME
T1 construct: purchased; host or cells: insect cells
T1 sequence (P05177 2-516 limits assumed): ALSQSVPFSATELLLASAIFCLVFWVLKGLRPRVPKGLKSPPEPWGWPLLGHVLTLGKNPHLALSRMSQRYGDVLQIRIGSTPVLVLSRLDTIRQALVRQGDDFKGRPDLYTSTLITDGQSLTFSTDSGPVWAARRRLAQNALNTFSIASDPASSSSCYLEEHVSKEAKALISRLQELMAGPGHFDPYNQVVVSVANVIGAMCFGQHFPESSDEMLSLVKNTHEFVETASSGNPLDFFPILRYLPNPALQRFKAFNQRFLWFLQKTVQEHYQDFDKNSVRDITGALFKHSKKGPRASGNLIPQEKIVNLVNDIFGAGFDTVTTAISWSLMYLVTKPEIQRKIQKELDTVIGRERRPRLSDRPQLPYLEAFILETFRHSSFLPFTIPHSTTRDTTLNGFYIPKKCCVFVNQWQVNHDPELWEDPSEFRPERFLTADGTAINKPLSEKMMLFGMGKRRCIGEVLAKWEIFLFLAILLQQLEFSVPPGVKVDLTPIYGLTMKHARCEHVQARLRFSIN
Protocol: To investigate the metabolism of PCB118 by CYP1A2, incubation assays were conducted using CYP1A2 supersomes in a total reaction volume of 100 µL. Reaction mixtures were assembled on ice. […] Reactions were initiated by the addition of CYP1A2 supersomes.
To assess potential non-enzymatic transformations and confirm NADPH-dependent metabolism, control incubations were performed under the following conditions: buffer and enzyme only (no-substrate control), substrate, buffer, and NADPH without enzyme (no-enzyme control), and substrate, buffer, and enzyme without NADPH (no-NADPH control). Each experimental condition was conducted in triplicate, while control conditions were performed as single replicates.
The resulting supernatants (100 µL) were transferred to LC–MS vials, yielding samples with 80% methanol content for analysis. For the detection of hydroxylated PCB metabolites, reactions were stopped by adding 500 µL methanol, followed by the addition of 50 µL of an internal standard mix (10 ng/mL). Samples were vortexed for 1 min and centrifuged at 4,500 rpm for 10 min. The resulting supernatants were transferred to glass LC vials and evaporated under a nitrogen stream at 45 °C until approximately 50 µL remained. Samples were then reconstituted in 100 µL of 0.1 M ammonium acetate buffer (pH 5.3) before transfer to inserts for LC–MS analysis.
To determine whether PCB118 serves as a substrate for CYP1A2 and could act as a competitive inhibitor for other CYP1A2 substrates, we conducted in vitro metabolism experiments. […] In parallel, CYP1A2-mediated metabolism of PCB118 was assessed. […] The identity of 4-OH-CB107 was verified by comparison with an authentic reference standard, showing identical retention time and spectral characteristics (supplemental Fig. 1).

CYP1A2 mRNA = CYP1A2 mRNA expression in primary human hepatocytes (qRT-PCR); assay type: cell-based; conditions: three donors, 48 h exposure, PCB118 0.1–0.5 µM, omeprazole positive control
[1] = Stability of substrates and metabolites in quality control samples (benchtop, autosampler, freeze-thaw); assay type: physicochemical; conditions: for Autosampler stability (24 h) Av. Accuracy (%): 10° C for 24 hours in the autosampler; for 3x freeze-thaw Av. Accuracy (%): after three freeze-thaw cycles; for Benchtop stability (19 h) Ac. Accuracy (%): room temperature for 19 hours
Text: The method was validated for intra- and interday accuracy and precision, stability, and matrix effects. […] Validation details are provided in Supplementary Tables 5–7 and supplemental Fig. 3. Glucuronidase/sulfatase digests were used to isolate CYP-specific metabolic activities, reducing interference from polymorphic UDP-glucuronosyltransferase (UGT) and sulfotransferase isoforms.
Supplemental table 6: Stability of the substrates and metabolites. Quality control samples were left at room temperature for 19 hours (benchtop stability) and at 10° C for 24 hours in the autosampler (autosampler stability) or were measured after three freeze-thaw cycles. Stability samples were measured against a freshly prepared set of calibrators and quality control samples.

In the case of `CCOc1ccc(NC(C)=O)cc1` [phenacetin, reference compound], the “CYP1A2-mediated metabolism of the substrate” value (Human CYP1A2; 10 µM substrate, 50 pmol/mL CYP1A2 supersomes, 2 mM NADPH, 1 h (phenacetin), 1 and 4 h (PCB118)) is reported as “efficiently catalyzed the O-de-ethylation of phenacetin to paracetamol”.

With `COc1ccc2[nH]c([S+]([O-])Cc3ncc(C)c(OC)c3C)nc2c1` (stereo not drawn) [omeprazol, omeprazole, reference compound] the “effect on CYP1A2 mRNA expression” value (CYP1A2 mRNA) was “strongly upregulated CYP1A2 expression”, the “Autosampler stability (24 h) Av. Accuracy (%)” value (from here on “Autosampler stability … (%)”) ([1]; QC conc. 0,5 ng/ml) was 114,94% and the “3x freeze-thaw Av. Accuracy (%)” value ([1]; QC conc. 0,5 ng/ml) was 112,03%. The “Benchtop stability (19 h) Ac. Accuracy (%)” value (from here on “Benchtop stability … (%)”) ([1]; QC conc. 0,5 ng/ml) was 117,42%, the “Autosampler stability … (%)” value ([1]; QC conc. 0,25 ng/ml) was 102,23% and the “3x freeze-thaw Av. Accuracy (%)” value ([1]; QC conc. 0,25 ng/ml) was 112,67%. The “Benchtop stability … (%)” value ([1]; QC conc. 0,25 ng/ml) was 91,86%, the “Autosampler stability … (%)” value ([1]; QC conc. 60 ng/ml) was 111,22% and the “3x freeze-thaw Av. Accuracy (%)” value ([1]; QC conc. 60 ng/ml) was 106,21%. The “Benchtop stability … (%)” value ([1]; QC conc. 60 ng/ml) was 112,32%, the “Autosampler stability … (%)” value ([1]; QC conc. 150 ng/ml) was 103,07% and the “3x freeze-thaw Av. Accuracy (%)” value ([1]; QC conc. 150 ng/ml) was 105,55%. For the same compound, the “Benchtop stability … (%)” value ([1]; QC conc. 150 ng/ml) was 104,38%, the “Autosampler stability … (%)” value ([1]; QC conc. 1,5 ng/ml) was 114,49% and the “3x freeze-thaw Av. Accuracy (%)” value ([1]; QC conc. 1,5 ng/ml) was 111,42%. For the same compound, the “Benchtop stability … (%)” value ([1]; QC conc. 1,5 ng/ml) was 115,14%.

With `Oc1c(Cl)cc(-c2ccc(Cl)c(Cl)c2)c(Cl)c1Cl` [4-OH-CB107] the “NADPH dependency of metabolite formation from PCB118” value (Human CYP1A2; control incubations lacking NADPH, substrate, or enzyme) was “strictly NADPH-dependent”.
